Data on two compounds can be found in patent US20230167058A1, “GPX4 COMPOUNDS AND COMPOSITIONS AND METHODS OF TREATMENT USING SAME” (THE TRUSTEES OF COLUMBIA UNIVERSITY IN THE CITY OF NEW YORK, priority 2020, published 2023).

The target in one assay is T1, GPX4 (Homo sapiens, UniProt P36969).
T1 sequence (P36969 1-170 isoform P36969-2): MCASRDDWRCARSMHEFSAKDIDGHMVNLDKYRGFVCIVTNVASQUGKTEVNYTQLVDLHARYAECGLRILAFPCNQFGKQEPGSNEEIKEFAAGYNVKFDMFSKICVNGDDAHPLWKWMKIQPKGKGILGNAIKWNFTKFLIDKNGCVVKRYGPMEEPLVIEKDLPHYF
The assay can be described thus: GPX4-specific enzymatic activity assay (LC-MS substrate/product, NADPH-coupled). The assay is classed as biochemical. The text has this: These x-ray structures enabled further optimization of current inhibitors and the design of novel inhibitors targeting various binding sites on GPX4. Therefore, we applied a strategy of computer-facilitated design, based on MD simulation (Desmond) and Glide docking (Schrödinger Suite), and experimental high-throughput screening of a lead-optimized compound library of 10,000 compounds (FIGS. 6A-6E). All candidates were first evaluated by thermal denaturation assay and microscale thermophoresis (MST) to validate binding to GPX4 (Table 1). Surface plasmon resonance (SPR) and isothermal titration calorimetry (ITC) were then applied to precisely measure their binding kinetics and affinities, while ^1H-^15N heteronuclear single-quantum coherence (HSQC) NMR spectroscopy informed us of binding sites. We optimized two GPX4-specific activity assays to examine enzymatic inhibitory effects of hit compounds—LC-MS-based substrate/product monitoring and an NADPH-coupled assay. […] Some L880 analogues were also synthesized and tested (Table 2).

For a further assay, the system named is HT1080 cells. The assay can be described thus: Single-point ferroptosis test, cellular viability (CellTiter-Glo). The assay is classed as cell-based, human. The conditions noted are these: 125 μM LOC1886, 48 h. As to the method: 1000 cells of each HT-1080 or G401 cell line were plated 36 μL per well of a 384-well plate on day 1. The remaining cells were immediately tested for Western Blot (to monitor GPX4 protein overexpression level). For dose response curves, compounds were dissolved in DMSO and a 12-point, twofold dilution series was prepared. The compounds were then diluted 1:50 in media and 4 μL was added to each well of the plates on day 2. Final concentrations of the compounds on the 384-well plate started from 2 μM for RSL3/ML162 and 20 μM for IKE/FIN56/FINO2. For single-point ferroptosis test, HT1080 cells were treated either with 12.5 μM RSL3 or 125 μM LOC1886, with or without supplementation of 2 μM Fer-1. After 48 h of treatment, the viability of cells was measured using 1:1 dilution of the CellTiter-Glo luminescent reagent (Promega G7573) with media, which was read on a Victor 5 plate reader after 10 min of shaking at room temperature on day 4. The intensity of luminescence was normalized to that of DMSO control. Results were quantified using GraphPad Prism 9. Based on the dose-response curve of viability, area under curves were calculated and reported in bar graph formats with standard errors using GraphPad Prism 9.
On the technique in general: Cellular ATP, detected with luciferase, serves as a proxy for viable cell number.

Assay [1] concerns GPX4 protein level in HT-1080 cells. The assay can be described thus: Western blot GPX4 degradation study in HT-1080. The assay is classed as cell-based, human. The conditions noted are these: 1 μM RSL3, 1 μM ML162, 10 μM FIN56, 10 h, with 100 μM α-tocopherol. In a few lines: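 HT-1080 cells were co-treated 10 h with 100 μM α-tocopherol plus compound (RSL3 or ML162 at 1 μM; IKE or FIN56 at 10 μM) or vehicle. RIPA lysates were Western blotted for GPX4, with actin and GAPDH as loading references. Blots were quantified by infrared imaging.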
(In western blotting, separated proteins are transferred to a membrane and probed.)

The target in another assay is T2, GPX4^allCys(−) A46C (Homo sapiens, UniProt P36969, C102S/C134A/C175A/C37A/C64S/C93A/U73C).
T2 construct: His (cleaved yes); made in house; host or cells: E. coli BL21-Gold (DE3)
T2 sequence (P36969 33-197 C37A/C64S/U73C/C93A/C102S/C134A/C175A): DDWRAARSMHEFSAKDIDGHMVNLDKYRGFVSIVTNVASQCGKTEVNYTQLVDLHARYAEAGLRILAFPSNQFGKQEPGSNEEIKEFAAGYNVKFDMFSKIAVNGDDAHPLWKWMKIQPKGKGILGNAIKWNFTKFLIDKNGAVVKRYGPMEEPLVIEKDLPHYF
The assay can be described thus: Intact protein MALDI MS analysis, GPX4^allCys(−) A46C. Format: binding. As to conditions: only cys46 present. As to the method:
GPX4^U46C or GPX4^AllCys(−)-A46C protein was pre-incubated with DMSO control or the inhibitor to be tested prior to MALDI MS analysis: 50 μM GPX4 protein was incubated with 500 μM inhibitors in FPLC buffer (100 mM Tris pH 8.0, 300 mM NaCl, and 3 mM TCEP) with 5% DMSO at RT for 1 hour before transferring to 4° C. overnight.
1 μl of the ligand-free protein (pre-incubated with DMSO) or protein-inhibitor complex (pre-incubated with the inhibitor to be tested) was mixed with 9 μl of 10 mg/ml sinapinic acid in the matrix solution (70:30 water/acetonitrile, with 0.1% TFA). 1.0 μl of the final mix was deposited onto the target carrier and allowed to air dry. MALDI spectrum was recorded using Bruker ultrafleXtreme MALDI-TOF instrument. The range of m/z detection and suppression was adjusted to accommodate the molecular weight of target protein. 2000 Hz and 50% intensity was applied for the laser setting. For each sample, five cumulative spectra were collected and the sum was recorded for analysis. All MALDI spectra of protein-inhibitor complex were compared with ligand-free protein to determine the mass shift. Mass shifts were aligned with the mass of potential staying group of each inhibitor to conclude covalent binding.

“Also recorded” adds a separate entry of the source.

Consider `COc1cccc2[nH]c(C(=O)n3ccnc3)cc12` [LOC1886], for which the GPX4 enzymatic assay result at GPX4 is listed as “suppression of its enzymatic activity; also recorded: positive”. For the same compound, the induction of ferroptosis result in the assay on HT1080 cells is listed as “able to induce ferroptosis to HT1080 cells”.

As to `COC(=O)c1ccc([C@@H]2c3[nH]c4ccccc4c3C[C@@H](C(=O)OC)N2C(=O)CCl)cc1` [RSL3, (1S, 3R)-RSL3], the “degradation of endogenous GPX4” value in assay [1] is recorded as “significantly promoted degradation of GPX4”. Further, the “covalent modification of cys46 (mass shift) by MALDI MS” value at GPX4^allCys(−) A46C is “no mass shift”.
